US9375457B2, “Composition comprising Rhizoma coptidis, Cortex phellodendri and Fructus gardeniae and for treating neurodegenerative diseases” (Hong Kong Baptist University, priority 2013, dated 2016)

Columns and labels:
[1] = system: APP processing (F1-APP, pAPPThr668, CTFs, sAPPα, sAPPβ-sw) in N2a-SwedAPP cells; test: Western blot of APP metabolic products in N2a-SwedAPP cells; assay type: cell-based, murine; parameters: key to Fl-APP (overall influence) / CTFs (overall influence) / sAPPα (overall influence) / sAPPβ (overall influence): ↓ decreased; ↑ increased; ? unchanged
Description: (§1) N2a-SwedAPP cells were obtained from Dr. Gopal Thinakaran (University of Chicago, Chicago, Ill., USA). N2a-SwedAPP cells were cultured in Dulbecco's modified Eagle's medium (DMEM) and OPTI-MEM medium in a 1:1 ratio with 5% FBS, 50 μg/mL penicillin, 50 μg/mL streptomycin and 200 μg/mL G418 as previously described in Thinakaran G, Teplow D B, Siman R, Greenberg B, Sisodia S S (1996) Metabolism of the “Swedish” amyloid precursor protein variant in neuro2a (N2a) cells. J Biol Chem 271: 9390-9397. N2a-SwedAPP cells were incubated at 37° C. in a 5% CO2/95% humidity incubator. Cells were seeded 24 hours prior to the treatments. When growth reached close to 90% of confluence, cells were transferred into DMEM with 1% FBS for loading extracts. The final concentration of DMSO in all experiments was 0.1%, and this concentration caused no cytotoxicity.
To detect the levels of APP metabolic products, the cell lysates and the conditioned media were prepared as described in Durairajan S S K, Liu L F, Lu J H, Koo I, Maruyama K, Chung S K, Huang J D, Li M. (2011) Stimulation of non-amyloidogenic processing of amyloid-β protein precursor by cryptotanshinone involves activation and translocation of ADAM10 and PKC-α. J Alzheimer's Dis 25: 245-262, with minor modification. N2a-SwedAPP cells were seeded at a density of 4×10^5/mL in DMEM medium in a 6-well plate and cultured for 1 day. After transfer, cells were treated with different doses of RC, CP, FG and RS for 48 hours, then the extracellular media were collected for detection of sAPPα and sAPPβ-sw, and cells were harvested to quantify F1-APP and β-actin by Western blot analysis, as described previously by Durairajan et al. For intracellular APP, APP-CTFs and Aβ preparation, cells were washed with ice-cold PBS twice and solubilized in ice-cold RIPA buffer with protease inhibitor cocktail added. Lysates were collected and centrifuged at 16,000×g for 15 minutes at 4° C. The resulting supernatants were collected, and their protein concentrations were determined with bicinchoninic acid (BCA) protein assay reagent (Thermo Scientific, IL, USA). For sAPPα and sAPPβ-sw detection, the conditioned media are collected and frozen in liquid nitrogen, subjected to lyophilization at −40° C. under vacuum of 105 μbar for 2 days in order to remove all liquid. The conditioned media were standardized to total cell lysate protein.
For Western blot analysis from cell culture or mouse brain, 10-30 μg total protein is separated on 10% and 15% SDS-PAGE gels and blotted onto PVDF membranes for the detection of full length APP (F1-APP), CTFs, sAPPα, sAPPβ-sw, 3-actin and phosphorylated APP (pAPPThr668). After blocking with 5% skimmed milk, the blots are incubated with primary antibodies overnight at 4° C. with shaking. Blots are washed and incubated with HRP-conjugated secondary antibodies. The goat anti-mouse IgG is used when the primary antibody is 6E10 (1:1000), sAPPβ-sw (1:100), or anti-β-actin (1:5000), and the goat anti-rabbit IgG is used when the primary antibody is anti-CT15 (1:5000) or pAPPThr668 (1:1000). After incubation with HRP-conjugated secondary antibody, immunoblots are treated with ECL and developed using X-ray films (Fujifilm). Films are scanned, and the band intensity is analyzed using Image J software (NIH Image).
Stripped CT15 and 6E10 probed membranes are reincubated with pAPPThr668 and sAPPβ-sw 6A1 antibodies, respectively.
Western blotting of N2a-SwedAPP cells is used to test differences in the processing of Swedish mutant APP by HLJDT components. Several antibodies are used in Western blot analysis: CT15 recognizes full length APP (F1-APP), 6E10 identifies only α-secretase-cleaved APP i.e sAPPα, and the sAPPβ-sw specific for β-secretase cleavage of Swedish mutant APP.

N2a-SwedAPP cells = test: MTT viability assay in N2a-SwedAPP cells; assay type: cell-based, murine; settings: mouse, 48 h
Description: as §1
For the viability assay, N2a-SwedAPP cells were seeded in a 96-well plate (7000 cells/well and 5000 cells/well). […] Finally, optical intensity was measured using a BioRad plate reader at 570 nm and a reference of 620 nm. […]
N2a-SwedishAPP cells are widely used as a cellular model of Alzheimer's disease, because they express a high level of APP and Aβ. The effects of HLJDT and its components on viability of N2SwedAPP cells are monitored by using the MTT assay. […]

TgCRND8 mice = settings: chronic administration; cited from earlier work
[2] = system: intracellular Aβ1-40 and Aβ1-42 in N2a-SwedAPP cells; test: Sandwich ELISA of intracellular Aβ in N2a-SwedAPP cells; assay type: cell-based, murine; parameters: key to Aβs (overall influence): ↓ decreased; ↑ increased; ? unchanged
Description: N2a-SwedAPP cells were seeded at a density of 4×10^5/mL in DMEM medium in a 6-well plate and cultured for 1 day. After transfer, cells were treated with different doses of RC, CP, FG and RS for 48 hours, then the extracellular media were collected for detection of sAPPα and sAPPβ-sw, and cells were harvested to quantify F1-APP and β-actin by Western blot analysis, as described previously by Durairajan et al. For intracellular APP, APP-CTFs and Aβ preparation, cells were washed with ice-cold PBS twice and solubilized in ice-cold RIPA buffer with protease inhibitor cocktail added. Lysates were collected and centrifuged at 16,000×g for 15 minutes at 4° C. The resulting supernatants were collected, and their protein concentrations were determined with bicinchoninic acid (BCA) protein assay reagent (Thermo Scientific, IL, USA). […] The conditioned media were standardized to total cell lysate protein.
The levels of intracellular Aβ1-40 and Aβ1-42 are quantified by using a sandwich ELISA as previously described by Durairajan et al., 2011 with minor modification. Equal amounts of cell or brain lysates are used for Aβ quantification by sandwich ELISA. The monoclonal antibody 6E10 is used as the capture antibody by adding to ELISA plates (0.2 μg diluted in 0.1 M Na2CO3 (pH 9.6) per well) and incubated overnight at 4° C. The plates are washed with PBS (0.05% Tween 20) and blocked with 4% BlockAce (Serotec, Raleigh, N.C., USA) for 2 hours at room temperature. Equilibrated protein lysates from each treatment (a 100 μL volume is adjusted in all treatment groups by using PBS) are applied in duplicate and incubated at room temperature for 2 hours with constant rotation at 30 rpm. Biotinylated monoclonal anti-Aβ40 5C3 (50 ng per well) and biotinylated monoclonal 8G7 (50 ng per well) antibodies are used for detection of Aβ1-40 and Aβ1-42, respectively, and are diluted in 1% BlockAce and incubated for 2 hours at room temperature. Plates are thoroughly washed with PBS (0.05% Tween 20), and streptavidin conjugated HRP is added for 1 hour at room temperature. Finally the plates are washed four times with PBST before adding the substrate TMB for 30 minutes. Absorbance at 450 nm is measured in duplicate wells after addition of 2 M H2SO4. All ELISA experimental data are from three different days. Synthetic Aβ40 and Aβ42 peptides are used for construction of calibration curves, and Aβ is measured in lysates.

## COc1ccc2cc3[n+](cc2c1OC)CCc1cc2c(cc1-3)OCO2 [berberine]
[1]; 6.25 μM, 48 hours
  reduction of sAPPα level: 30%
  reduction of sAPPβ-sw level: 45%
[1]; 12.5 μM, 48 hours
  reduction of CTFs level: 67%
  reduction of F1-APP level: 54%
  reduction of pAPPThr668 level: 42%
  reduction of sAPPα level: 58%
  reduction of sAPPβ-sw level: 70%
[1]; N2a-SwedAPP cells
  CTFs (overall influence): ↓
  Fl-APP (overall influence): ↓
  sAPPα (overall influence): ↓
  sAPPβ (overall influence): ↓
N2a-SwedAPP cells
  non-toxic concentration (highest concentration that shows greater than 90% cell viability): 12.5 µM
TgCRND8 mice
  effect on Aβ pathology, gliosis and cognitive impairments: significantly reduce
[2]; 12.5 μM, 48 h
  reduction of intracellular Aβ1-40: 37%
  reduction of intracellular Aβ1-42: 25%
[2]; N2a-SwedAPP cells
  Aβs (overall influence): ↓
